# Results reported in patent publication US10668040B2, “Treatment of urea cycle disorders in neonates and infants” (Horizon Therapeutics, LLC, priority 2017, dated 2020).
# Key:
# Format in all cases: in vivo, human
# [1] = Pharmacokinetics of HPN-100 and NaPBA, study HPN-100-005; conditions: HPN-100-005 (N = 11)
# Text: (§1) The pharmacokinetics of the short term studies can be summarized as follows. Mean exposure levels of HPN-100 metabolites PBA, PAA, and PAGN after doses of HPN-100 and NaPBA with meals (TID) in pediatric (29 days to 17 years of age) UCD patients in HPN-100-005 and HPN-100-012 studies are summarized below. The mean exposure to PBA, the parent metabolite, and mean exposure to PAGN, the terminal metabolite, show no systematic variation across age groups, while PAA exposure tended to decrease with increasing age, a finding consistent with those from population PK modeling which indicate that the rate of clearance/metabolism of PAA varies directly with body size. While systemic metabolite exposure, assessed as peak plasma concentration (Cmax) or AUC, is generally similar for HPN-100 and NaPBA, the minimum concentration (Cmin-ss) was higher—and/or percent-fluctuation less—for plasma PAGN, a finding consistent with slower gastrointestinal absorption of PBA when administered orally as HPN-100.
# [2] = Pharmacokinetics of HPN-100 and NaPBA, study HPN-100-012; conditions: HPN-100-012 (N = 15)
# Text: as §1
# UCD patients = experiment: Example 3: rate of hyperammonemic crises (HACs)
# Text: Sixteen newborn infants aged 0 to 27 days, and 10 infants and toddlers aged 28 days to 23 months received RAVICTI Oral Liquid administered just prior to breastfeeding or intake of formula or food. The recommended dosing regimen was 3-6 times per day depending on feeding schedule.
# The starting dose of RAVICTI was based on UCD status (newly diagnosed, or already stable on sodium phenylbutyrate [NaPBA] and/or sodium benzoate [NaBz]) and whether a hyperammonemic crisis was present. Subsequently, the dose may have been adjusted based on clinical and/or ammonia results, according to an algorithm provided in the protocol. […]
# Hyperammonemic crisis (HAC) was defined as having signs and symptoms consistent with hyperammonemia (such as, but not limited to, frequent vomiting, nausea, headache, lethargy, irritability, combativeness, and/or somnolence) associated with high blood ammonia and requiring medical intervention. Rate of HACs prior to enrollment was calculated as sum of (number of HAC)/sum of (subject age in days at the time of enrollment or 365 days, whichever was less) across all subjects in the corresponding group. Rate of HACs per 6 months during the safety extension was calculated as sum of (number of HAC)/sum of (days during first 6 months starting on Day 8 or number days on RAVICTI, whichever is less) across all subjects in the corresponding group.
# [3] = Example 3: plasma PBA, PAA, PAGN PK on first full day of RAVICTI dosing
# Protocol: Pharmacokinetic (PK) Evaluable Population: all subjects from the safety population with individual concentration-time profiles that allow computation of meaningful PK parameter values. Measurements were taken at hour 0, between 4 and 6 hours, 8 hours, and between 12 and 24 hours after the first dose of the day on day 1 for stable subjects and on day 2 for subjects in HAC.
# PK Evaluable Population: all subjects from the safety population with individual concentration-time profiles that allow computation of meaningful PK parameter values. Measurements were taken at hour 0, between 4 and 6 hours, 8 hours, and between 12 and 24 hours after the first dose of the day on day 1 for stable subjects and on day 2 for subjects in HAC.
# [4] = aged 0 to 2 months, 16 subjects
# [5] = aged 2 months and up to 2 years, 10 subjects
smiles,measurement,setting,value
"O=C(CCCc1ccccc1)OCC(COC(=O)CCCc1ccccc1)OC(=O)CCCc1ccccc1 [RAVICTI, benzenebutanoic acid, 1′,1″-(1,2,3-propanetriyl) ester]",Plasma PAA % Fluctuation,[1]; mean (CV %),3483 (51.5) %
same,Plasma PAA AUC0-24,[1]; mean (CV %),964 (63.6) μg · h/mL
same,Plasma PAA CLss/F,[1]; mean (CV %),15082 (101.4) mL/min
same,Plasma PAA Cmax-ss,[1]; mean (CV %),90.5 (69.1) μg/mL
same,Plasma PAA Cmin-ss,[1]; mean (CV %),2.99 (122.1) μg/mL
same,Plasma PAGN % Fluctuation,[1]; mean (CV %),1001 (84.5) %
same,Plasma PAGN AUC0-24,[1]; mean (CV %),1378 (40.2) μg · h/mL
same,Plasma PAGN CLss/F,[1]; mean (CV %),14237 (36.8) mL/min
same,Plasma PAGN Cmax-ss,[1]; mean (CV %),105 (33.5) μg/mL
same,Plasma PAGN Cmin-ss,[1]; mean (CV %),13.1 (64.9) μg/mL
same,Plasma PBA % Fluctuation,[1]; mean (CV %),5690 (56.8) %
same,Plasma PBA AUC0-24,[1]; mean (CV %),631 (44.9) μg · h/mL
same,Plasma PBA CLss/F,[1]; mean (CV %),20545 (47.2) mL/min
same,Plasma PBA Cmax-ss,[1]; mean (CV %),95.6 (42.0) μg/mL
same,Plasma PBA Cmin-ss,[1]; mean (CV %),1.50 (99.8) μg/mL
same,U-PAGN Ae,[1]; mean (CV %),12501037 (56.9) μg
same,U-PAGN Ae0-12,[1]; mean (CV %),5611719 (74.7) μg
same,U-PAGN Ae12-24,[1]; mean (CV %),6889318 (50.1) μg
same,U-PAGN Fe0-12,[1]; mean (CV %),28.9 (42.1) %
same,U-PAGN Fe12-24,[1]; mean (CV %),37.4 (32.3) %
same,U-PAGN Fe % dose,[1]; mean (CV %),66.4 (23.9) %
same,Plasma PAA Tmax-ss,[1]; median,11.92 h
same,Plasma PAGN Tmax-ss,[1]; median,12.00 h
same,Plasma PBA Tmax-ss,[1]; median,12.00 h
same,Plasma PAA % Fluctuation,[2]; mean (CV %),2141 (145.0) %
same,Plasma PAA AUC0-24,[2]; mean (CV %),1096 (214.0) μg · h/mL
same,Plasma PAA CLss/F,[2]; mean (CV %),25538 (116.8) mL/min
same,Plasma PAA Cmax-ss,[2]; mean (CV %),84.7 (148.3) μg/mL
same,Plasma PAA Cmin-ss,[2]; mean (CV %),26.1 (360.8) μg/mL
same,Plasma PAGN % Fluctuation,[2]; mean (CV %),907 (116.7) %
same,Plasma PAGN AUC0-24,[2]; mean (CV %),1131 (71.2) μg · h/mL
same,Plasma PAGN CLss/F,[2]; mean (CV %),10830 (85.6) mL/min
same,Plasma PAGN Cmax-ss,[2]; mean (CV %),85.5 (53.7) μg/mL
same,Plasma PAGN Cmin-ss,[2]; mean (CV %),19.9 (173.4) μg/mL
same,Plasma PBA % Fluctuation,[2]; mean (CV %),1781 (84.6) %
same,Plasma PBA AUC0-24,[2]; mean (CV %),255 (54.5) μg · h/mL
same,Plasma PBA CLss/F,[2]; mean (CV %),22610 (48.6) mL/min
same,Plasma PBA Cmax-ss,[2]; mean (CV %),36.8 (59.0) μg/mL
same,Plasma PBA Cmin-ss,[2]; mean (CV %),0.750 (192.7) μg/mL
same,Plasma PAA Tmax-ss,[2]; median,8.00 h
same,Plasma PAGN Tmax-ss,[2]; median,7.92 h
same,Plasma PBA Tmax-ss,[2]; median,8.00 h
same,Rate of HACs (ratio),"UCD patients; subjects aged 0 to 27 days, 16 subjects assessed",0.003
same,Rate of HACs (ratio),"UCD patients; subjects aged 2 months and up to 2 years, 6 subjects assessed",0.005
same,Plasma PBA mean Cmin,"[3]; aged 0 to 2 months, 7 subjects",4.8 (±4.2) μg/mL
same,mean plasma PAA Cmin,"[3]; aged 0 to 2 months, 10 subjects",98.98 (±122.07) μg/mL
same,mean plasma PAGN Cmin,"[3]; aged 0 to 2 months, 13 subjects",69.39 (±54.03) μg/mL
same,Plasma PBA mean AUC[0-last],[3]; [4],374.53 (±390.48) μg*hr/mL
same,Plasma PBA mean Cmax,[3]; [4],46.2 (±49.8) μg/mL
same,Plasma PBA mean Tmax,[3]; [4],9.39 (±7.41) hr
same,mean plasma PAA AUC(0-last),[3]; [4],1321.18 (±1220.52) μg*hr/mL
same,mean plasma PAA Cmax,[3]; [4],115.3 (±102.0) μg/mL
same,mean plasma PAA Tmax,[3]; [4],9.85 (±9.26) hr
same,mean plasma PAGN AUC(0-last),[3]; [4],1384.12 (±1141.03) μg*hr/mL
same,mean plasma PAGN Cmax,[3]; [4],102.1 (±48.6) μg/mL
same,mean plasma PAGN Tmax,[3]; [4],11.72 (±8.24) hr
same,Plasma PBA mean AUC[0-last],[3]; [5],280.936 (±293.553) μg*hr/mL
same,Plasma PBA mean Cmax,[3]; [5],42.11 (±36.715) μg/mL
same,Plasma PBA mean Cmin,[3]; [5],1.697 (±2.254) μg/mL
same,Plasma PBA mean Tmax,[3]; [5],8.383 (±4.564) hr
same,mean plasma PAA AUC(0-last),[3]; [5],246.126 (±238.547) μg*hr/mL
same,mean plasma PAA Cmax,[3]; [5],36.52 (±31.784) μg/mL
same,mean plasma PAA Cmin,[3]; [5],4.197 (±6.434) μg/mL
same,mean plasma PAA Tmax,[3]; [5],7.422 (±7.351) hr
same,mean plasma PAGN AUC(0-last),[3]; [5],583.835 (±285.241) μg*hr/mL
same,mean plasma PAGN Cmax,[3]; [5],62.45 (±27.281) μg/mL
same,mean plasma PAGN Cmin,[3]; [5],20.62 (±14.529) μg/mL
same,mean plasma PAGN Tmax,[3]; [5],6.573 (±7.181) hr
